Laboratory results taken from patent publication US11505533B2, “Metabolically stable N-acylaminooxadiazoles useful as antibacterial agents” (MICROBIOTIX, INC., priority 2017, dated 2022).
≈ marks a conversion by molar mass, not a printed value.

How the values were obtained:
[1] = system: E. coli TolC(−); assay: TolC(−) MIC (NB); format: cell-based; conditions: Escherichia coli, read-out: TolC(−) MIC (μM)(NB)
[2] = Aqueous solubility, nephelometry; conditions: water, kinetic from dmso stock
[3] = Microsomal stability + NADPH; conditions: mouse liver microsomes, 0.5 hr at 37° C.
[4] = Mammalian cell cytotoxicity
[5] = system: N. gonorrhoeae 49226; format: cell-based; conditions: Neisseria gonorrhoeae; N. gonorrhoeae 49226; read-out: MIC
[6] = system: S. aureus ATCC 25923 (MSSA. osteomyelitis isolate); format: cell-based; conditions: Staphylococcus aureus; S. aureus ATCC 25923 (MSSA); read-out: MIC
[7] = system: MRSA-1094 (MDR); format: cell-based; conditions: Staphylococcus aureus; MRSA-1094 (MDR); read-out: MIC
[8] = system: E. coli (700, TolC+) efflux pos; format: cell-based; conditions: Escherichia coli; E. coli (700, TolC+) efflux pos; read-out: MIC
[9] = system: E. coli TolC(−); conditions: MIC in the presence of 10% fetal calf serum versus without
[10] = Mouse serum binding, equilibrium dialysis
[11] = Mouse serum stability; conditions: 5 μM, 37° C., 4 h

## CC(C)(C)COc1ccc(C(=O)Nc2nnc(-c3ccc(F)cc3)o2)cc1 [compound 4284]
[1]
  MIC: 70.7 µM (≈ 26.1 µg/mL)
[2]
  solubility: 3.12 µM (≈ 1.15 µg/mL)

## Cc1ccc(Oc2ccc(C(=O)Nc3nnc(-c4ccc(F)cc4)o3)cc2)cc1 [compound 4305]
[1]
  MIC: 0.781 µM (≈ 0.304 µg/mL)
[2]
  solubility: 3.13 µM (≈ 1.22 µg/mL)
[3]
  Microsomal Stability + NADPH % degraded: <30%
[4]
  CC50: 32 µM

## Cc1cccc(Oc2ccc(C(=O)Nc3nnc(-c4ccc(F)cc4)o3)cc2)c1 [compound 4306]
[1]
  MIC: 0.984 µM (≈ 0.383 µg/mL)
[2]
  solubility: 6.25 µM (≈ 2.43 µg/mL)
[3]
  Microsomal Stability + NADPH % degraded: <30%
[4]
  CC50: > 100 µM

## Cc1ccccc1Oc1ccc(C(=O)Nc2nnc(-c3ccc(F)cc3)o2)cc1 [compound 4307]
[1]
  MIC: 1.56 µM (≈ 0.608 µg/mL)
[2]
  solubility: 12.5 µM (≈ 4.87 µg/mL)
[3]
  Microsomal Stability + NADPH % degraded: <30%
[4]
  CC50: 65 µM

## Cc1cc(C)cc(Oc2ccc(C(=O)Nc3nnc(-c4ccc(F)cc4)o3)cc2)c1 [compound 4308]
[1]
  MIC: 1.56 µM (≈ 0.63 µg/mL)
[2]
  solubility: 3.13 µM (≈ 1.26 µg/mL)
[3]
  Microsomal Stability + NADPH % degraded: <30%
[4]
  CC50: 32 µM

## COc1cccc(Oc2ccc(C(=O)Nc3nnc(-c4ccc(F)cc4)o3)cc2)c1 [compound 4309]
[1]
  MIC: 0.984 µM (≈ 0.399 µg/mL)
[2]
  solubility: 6.25 µM (≈ 2.53 µg/mL)
[3]
  Microsomal Stability + NADPH % degraded: <30%
[4]
  CC50: > 100 µM

## COc1ccc(Oc2ccc(C(=O)Nc3nnc(-c4ccc(F)cc4)o3)cc2)cc1 [compound 4310]
[1]
  MIC: 0.781 µM (≈ 0.317 µg/mL)
[2]
  solubility: 6.25 µM (≈ 2.53 µg/mL)
[3]
  Microsomal Stability + NADPH % degraded: <30%
[4]
  CC50: > 100 µM

## O=C(Nc1nnc(-c2ccc(F)cc2)o1)N1CCc2cc(F)ccc2C1 [compound 4331]
[5]
  MIC: 0.089 µg/mL (≈ 0.25 µM)
[6]
  MIC: 4.45 µg/mL (≈ 12.5 µM)
[7]
  MIC: 3.15 µg/mL (≈ 8.84 µM)
[1]
  MIC: 3.12 µM (≈ 1.11 µg/mL)
[2]
  solubility: 12.5 µM (≈ 4.45 µg/mL)
[3]
  Microsomal Stability + NADPH % degraded: <30%
[8]
  MIC: > 35 µg/mL
[4]
  CC50: 34 µM

## C=CCN(C)C(=O)Nc1nnc(-c2ccc(F)cc2)o1 [compound 4345]
[6]
  MIC: 27.6 µg/mL (≈ 99.9 µM)
[7]
  MIC: 19.5 µg/mL (≈ 70.7 µM)
[1]
  MIC: 25 µM (≈ 6.91 µg/mL)
[8]
  MIC: > 27 µg/mL

## COC(=O)C1=CCN(C(=O)Nc2nnc(-c3ccc(F)cc3)o2)CC1 [compound 4348]
[1]
  MIC: 12.5 µM (≈ 4.33 µg/mL)
[2]
  solubility: 25 µM (≈ 8.66 µg/mL)
[4]
  CC50: > 100 µM

## CC(Oc1ccc(C(=O)Nc2nnc(-c3ccc(F)cc3)o2)cc1)c1ccccc1 (stereo not shown) [compound 4357]
[1]
  MIC: 1.56 µM (≈ 0.63 µg/mL)
[2]
  solubility: 3.1 µM (≈ 1.25 µg/mL)
[4]
  CC50: 45 µM

## O=C(Nc1nnc(-c2ccc(F)cc2)o1)N1CCN(c2ncccn2)CC1 [compound 4465]
[1]
  MIC: 6.25 µM (≈ 2.31 µg/mL)
[2]
  solubility: 12.5 µM (≈ 4.62 µg/mL)
[4]
  CC50: > 100 µM

## O=C(Nc1nnc(C2CCCC2)o1)c1ccc(Oc2ccccc2)nc1 [compound 4470]
[1]
  MIC: 7.02 µM (≈ 2.46 µg/mL)
[9]
  Fold Serum Shift vs. TolC(−): 7.1 fold
[2]
  solubility: 100 µM (≈ 35 µg/mL)
[3]
  Microsomal Stability + NADPH % degraded: 2%
[10]
  fraction unbound: 0.022
[4]
  CC50: > 100 µM

## Cc1ccccc1-c1nnc(NC(=O)c2ccc(Oc3ccccc3)nc2)o1 [compound 4498]
[1]
  MIC: 2.21 µM (≈ 0.823 µg/mL)
[4]
  CC50: > 100 µM

## Cc1cccc(-c2nnc(NC(=O)c3ccc(Oc4ccccc4)nc3)o2)c1 [compound 4499]
[1]
  MIC: 1.56 µM (≈ 0.581 µg/mL)
[9]
  Fold Serum Shift vs. TolC(−): 20 fold
[2]
  solubility: 25 µM (≈ 9.31 µg/mL)
[3]
  Microsomal Stability + NADPH % degraded: 19%
[10]
  fraction unbound: < 0.01
[4]
  CC50: > 100 µM

## O=C(Nc1nnc(-c2ccc(F)cc2)o1)N1CCC(Cl)=C(Cl)C1 [compound 4737]
[1]
  MIC: 0.78 µM (≈ 0.279 µg/mL)
[9]
  Fold Serum Shift vs. TolC(−): 32 fold
[2]
  solubility: 6.3 µM (≈ 2.25 µg/mL)
[11]
  Serum Stability (% remain): >95%
[3]
  Microsomal Stability + NADPH % degraded: 21%
[10]
  fraction unbound: < 0.01
[4]
  CC50: > 100 µM

## CC1CC(C)CN(C(=O)Nc2nnc(-c3ccc(F)cc3)o2)C1 (stereo not shown) [compound 4768]
[1]
  MIC: 6.25 µM (≈ 1.99 µg/mL)

## O=C(Nc1nnc(C2COc3ccccc3O2)o1)c1ccc(Oc2ccccc2)nc1 (stereo not shown) [compound 4770]
[1]
  MIC: 4.42 µM (≈ 1.84 µg/mL)

## O=C(Nc1nnc(-c2ccc(F)cc2)o1)N1CCCC(F)(F)CC1 [compound 4776]
[1]
  MIC: 12.5 µM (≈ 4.25 µg/mL)

## O=C(Nc1nnc(-c2ccc(F)cc2)o1)N1CCCc2ccccc2C1 [compound 4777]
[1]
  MIC: 17.7 µM (≈ 6.23 µg/mL)

## COC(=O)c1ccc(OC2CCN(C(=O)Nc3nnc(-c4ccc(F)cc4)o3)CC2)cc1 [compound 4778]
[1]
  MIC: 19.8 µM (≈ 8.74 µg/mL)

## COC(=O)c1ccc(CC2CCN(C(=O)Nc3nnc(-c4ccc(F)cc4)o3)CC2)cc1 [compound 4779]
[1]
  MIC: 12.5 µM (≈ 5.48 µg/mL)

## O=C(Nc1nnc(C2CCCCC2)o1)c1ccc(Oc2ccccc2)nc1 [compound 4780]
[1]
  MIC: 1.24 µM (≈ 0.452 µg/mL)
[10]
  fraction unbound: 0.005

## O=C(Nc1nnc(Cc2ccc(F)cc2)o1)c1ccc(Oc2ccccc2)nc1 [compound 4802]
[1]
  MIC: 6.25 µM (≈ 2.44 µg/mL)

## CC1=CCN(C(=O)Nc2nnc(C3CCCCC3)o2)CC1 [compound 4805]
[1]
  MIC: 25 µM (≈ 7.26 µg/mL)

## O=C(Nc1nnc(C2CCCCC2)o1)N1CC=C(C(F)(F)F)CC1 [compound 4806]
[1]
  MIC: 12.5 µM (≈ 4.3 µg/mL)

## O=C(Nc1nnc(-c2ccc(F)cc2)o1)N1CC(C(F)(F)F)C(C(F)(F)F)C1 (stereo not shown) [compound 4839]
[1]
  MIC: 3.13 µM (≈ 1.29 µg/mL)
[9]
  Fold Serum Shift vs. TolC(−): 12.5 fold
[2]
  solubility: 6.25 µM (≈ 2.58 µg/mL)
[11]
  Serum Stability (% remain): >95%

## O=C(Nc1nnc(-c2ccc(F)cc2)o1)N1CCC(C(F)(F)F)CC1 [compound 4840]
[1]
  MIC: 6.25 µM (≈ 2.24 µg/mL)
[9]
  Fold Serum Shift vs. TolC(−): 4 fold

## CC(C)(C)C1=CCN(C(=O)Nc2nnc(-c3ccc(F)cc3)o2)CC1 [compound 4841]
[1]
  MIC: 6.25 µM (≈ 2.15 µg/mL)
[9]
  Fold Serum Shift vs. TolC(−): 8 fold

## O=C(Nc1nnc(-c2ccc(F)cc2)o1)N1CCC2(CCC2)CC1 [compound 4842]
[1]
  MIC: 6.25 µM (≈ 2.06 µg/mL)
[9]
  Fold Serum Shift vs. TolC(−): 4 fold
[11]
  Serum Stability (% remain): 77%

## COCC1=CCN(C(=O)Nc2nnc(-c3ccc(F)cc3)o2)CC1 [compound 4843]
[1]
  MIC: 25 µM (≈ 8.31 µg/mL)
